Assay results as given in patent US20250243188A1, “METHIONINE ADENOSYLTRANSERASE 2A INHIBITORS” (IDEAYA BIOSCIENCES, INC., priority 2022, published 2025).

Each molecule was assayed against Human MAT2A (Homo sapiens (Human), UniProt P31153) (assay: Phosphate Sensor Fluorescence Assay (MAT2A enzyme inhibition)). Conditions: MAT2A (1-395) 5.8 nM, 500 uM L-methionine, 500 uM ATP.
Type: biochemical
Description: The ability of the compound of present disclosure to inhibit MAT2A enzyme was determined using a Phosphate Sensor Fluorescence Assay described below.
MAT2A enzyme is incubated with a test compound in DMSO or DMSO and its substrates (L-methionine and ATP) in a microtiter plate. The enzymatic reaction is stopped by the addition of Working Phosphate Sensor Mixture. The plate is analyzed for fluorescence at 450 nm. The high control (DMSO with enzyme and its substrates) gives high fluorescence which represents no inhibition of enzymatic activity while the low control (DMSO with MAT2A substrates and no enzyme) gives low fluorescence which represents full inhibition of enzymatic activity.
• Human MAT2A: Cepter, amino acids 1-395 (Clone ID 334, lot 00023-148) • Tris, pH 7.5: Invitrogen cat #15567-027 • KCl: Ambion cat #AM9640G • MgCl2: Ambion cat #AM9530G • Brij-35: Sigma cat B4184-10ML • DTT: Goldbio cat #DTT100 • BGG: Sigma cat #G5009-25G • PNP: Novus Biologicals cat #NBP1-50872 • 7-MEG: Cayman Chemical cat #15988 • L-Methionine: JTBaker P/N 2085-05 • ATP: Promega P/N V915B • Phosphate Sensor: Thermo Fisher cat #PV4407 • EDTA: Invitrogen cat #15575-038 • Assay plate: 384-well black polypropylene plate: Corning P/N 3573
• Assay Buffer: 50 mM Tris, pH 7.5/50 mM KCl/10 mM MgCl2/0.01% Brij-35/1 mM DTT/0.01% BGG/40 nM PNP/6 uM 7-MEG • MAT2A: 5.8 nM MAT2A (1-395), Cepter, clone ID 334, lot 00023-148 before the addition of Working Phosphate Sensor Mixture • L-methionine: 500 uM before the addition of Working Phosphate Sensor Mixture • ATP: 500 uM before the addition of Working Phosphate Sensor Mixture
For the assay, a mixture of 1 mM L-methionine/1 mM ATP (2× final pre-stopped concentration) in assay buffer; MAT2A (2× final pre-stopped concentration) in Assay Buffer and Working Phosphate Sensor Mixture (1.5 uM Phosphate Sensor/30 mM EDTA in Assay Buffer, which is 3× final concentrations) were prepared. Test compounds or DMSO were added to the appropriate well using a Beckman Coulter Echo 550 acoustic liquid handler. 10 μl/well of Assay Buffer was added to the wells corresponding to the negative control and 10 μl/well of MAT2A was added to all the wells except for those corresponding to the negative control. After incubating the plate at room temperature for 15 minutes, 10 μl/well of the 1 mM L-methionine/1 mM ATP mixture was added to all wells. The plate was centrifuged at 1000 rpm for 1 minute and then incubated at room temperature for 1 hour. 10 μl of the Working Phosphate Sensor Mixture was added to all wells and the plate was centrifuged at 1000 rpm for 1 minute. The plate was read for fluorescence at 450 nm after exciting at 430 nm on a Tecan Spark microplate reader.
Percent inhibition was calculated in Chemical and Biological Information System (CBIS), (ChemInnovation Software Inc.). Curves were fitted by CBIS as % inhibition vs. log [compound concentration] using a 4-parameter inhibition model.

Sequence of Human MAT2A (P31153 whole entry): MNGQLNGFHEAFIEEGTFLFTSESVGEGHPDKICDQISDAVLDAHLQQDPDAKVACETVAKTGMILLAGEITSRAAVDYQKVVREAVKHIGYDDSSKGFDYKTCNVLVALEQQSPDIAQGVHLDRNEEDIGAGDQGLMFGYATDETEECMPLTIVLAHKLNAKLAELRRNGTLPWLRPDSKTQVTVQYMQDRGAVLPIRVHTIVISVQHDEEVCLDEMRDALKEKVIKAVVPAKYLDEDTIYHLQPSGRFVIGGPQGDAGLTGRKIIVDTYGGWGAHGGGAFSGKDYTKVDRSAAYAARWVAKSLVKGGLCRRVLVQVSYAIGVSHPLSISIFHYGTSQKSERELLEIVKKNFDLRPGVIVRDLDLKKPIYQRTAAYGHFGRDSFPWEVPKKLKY

IC50, < 200 nM:
CN(C)c1nc(=O)n(-c2cccc(OCc3csc(-n4c(=O)nc(N(C)C)c5ccc(Cl)cc54)c3)c2)c2cc(Cl)ccc12 [Example 12, 7-Chloro-1-(4-((3-(7-chloro-4-(dimethylamino)-2-oxoquinazolin-1(2H)-yl)phenoxy)methyl)thiophen-2-yl)-4-(dimethylamino)quinazolin-2(1H)-one]
Cn1c(-n2c(=O)[nH]c(=O)c3ccc(Cl)cc32)cnc1C(=O)Nc1cccc(-n2c(=O)[nH]c(=O)c3ccc(Cl)cc32)c1 [Example 9, 5-(7-Chloro-2,4-dioxo-3,4-dihydroquinazolin-1(2H)-yl)-N-(3-(7-chloro-2,4-dioxo-3,4-dihydroquinazolin-1(2H)-yl)phenyl)-1-methyl-1H-imidazole-2-carboxamide]
CN(C)c1nc(=O)n(-c2cccc(NC(=O)c3cc(-n4c(=O)nc(N(C)C)c5ccc(Br)cc54)n(C)n3)c2F)c2cc(Cl)ccc12 [Example 10, 5-(7-Bromo-4-(dimethylamino)-2-oxoquinazolin-1(2H)-yl)-N-(3-(7-chloro-4-(dimethylamino)-2-oxoquinazolin-1(2H)-yl)-2-fluorophenyl)-1-methyl-1H-pyrazole-3-carboxamide]
CN(C)c1nc(=O)n(-c2cccc(NC(=O)c3csc(-n4c(=O)nc(N(C)C)c5ccc(C(F)(F)F)cc54)c3)c2)c2cc(C(F)(F)F)ccc12 [Example 6, 5-(4-(Dimethylamino)-2-oxo-7-(trifluoromethyl)quinazolin-1(2H)-yl)-N-(3-(4-(dimethylamino)-2-oxo-7-(trifluoromethyl)quinazolin-1(2H)-yl)phenyl)thiophene-3-carboxamide]
CN(C)c1nc(=O)n(-c2cccc(NCc3csc(-n4c(=O)nc(N(C)C)c5ccc(Cl)cc54)c3)c2)c2cc(Cl)ccc12 [Example 11, 7-Chloro-1-(4-(((3-(7-chloro-4-(dimethylamino)-2-oxoquinazolin-1(2H)-yl)phenyl)amino)methyl)thiophen-2-yl)-4-(dimethylamino)quinazolin-2(1H)-one]
O=C(Nc1cccc(-n2c(=O)[nH]c(=O)c3ccc(Cl)cc32)c1)c1cccc(-n2c(=O)[nH]c(=O)c3ccc(Cl)cc32)c1 [Example 7, 3-(7-Chloro-2,4-dioxo-3,4-dihydroquinazolin-1(2H)-yl)-N-(3-(7-chloro-2,4-dioxo-3,4-dihydroquinazolin-1(2H)-yl)phenyl)benzamide]
Cc1c(C(=O)Nc2cccc(-n3c(=O)nc(N(C)C)c4ccc(Cl)cc43)c2)csc1-n1c(=O)nc(N(C)C)c2ccc(Cl)cc21 [Example 3, 5-(7-Chloro-4-(dimethylamino)-2-oxoquinazolin-1(2H)-yl)-N-(3-(7-chloro-4-(dimethylamino)-2-oxoquinazolin-1(2H)-yl)phenyl)-4-methylthiophene-3-carboxamide]
CN(C)c1nc(=O)n(-c2cccc(NC(=O)c3csc(-n4c(=O)nc(N(C)C)c5ccc(Cl)cc54)c3)c2)c2cc(Cl)ccc12 [Example 1, 5-(7-Chloro-4-(dimethylamino)-2-oxoquinazolin-1(2H)-yl)-N-(3-(7-chloro-4-(dimethylamino)-2-oxoquinazolin-1(2H)-yl)phenyl)thiophene-3-carboxamide]
O=C(Nc1cccc(-n2c(=O)[nH]c(=O)c3ccc(C(F)(F)F)cc32)c1)c1csc(-n2c(=O)[nH]c(=O)c3ccc(C(F)(F)F)cc32)c1 [Example 5, 5-(2,4-Dioxo-7-(trifluoromethyl)-3,4-dihydroquinazolin-1(2H)-yl)-N-(3-(2,4-dioxo-7-(trifluoromethyl)-3,4-dihydroquinazolin-1(2H)-yl)phenyl)thiophene-3-carboxamide]
CN(C)c1nc(=O)n(-c2cccc(NC(=O)c3cnc(-n4c(=O)nc(N(C)C)c5ccc(Cl)cc54)s3)c2)c2cc(Cl)ccc12 [Example 8, 2-(7-Chloro-4-(dimethylamino)-2-oxoquinazolin-1(2H)-yl)-N-(3-(7-chloro-4-(dimethylamino)-2-oxoquinazolin-1(2H)-yl)phenyl)thiazole-5-carboxamide]
CN(C)c1nc(=O)n(-c2cccc(NC(=O)c3ncc(-n4c(=O)nc(N(C)C)c5ccc(Cl)cc54)n3C)c2)c2cc(Cl)ccc12 [Example 4, 5-(7-Chloro-4-(dimethylamino)-2-oxoquinazolin-1(2H)-yl)-N-(3-(7-chloro-4-(dimethylamino)-2-oxoquinazolin-1(2H)-yl)phenyl)-1-methyl-1H-imidazole-2-carboxamide]
O=C(Nc1cccc(-n2c(=O)[nH]c(=O)c3ccc(Cl)cc32)c1)c1csc(-n2c(=O)[nH]c(=O)c3ccc(Cl)cc32)c1 [Example 2, 5-(7-Chloro-2,4-dioxo-3,4-dihydroquinazolin-1(2H)-yl)-N-(3-(7-chloro-2,4-dioxo-3,4-dihydroquinazolin-1(2H)-yl)phenyl)thiophene-3-carboxamide]
